Data as given in ChEMBL document CHEMBL5154709, “Tetrazole derivatives bearing benzodiazepine moiety-synthesis and action mode against virulence of Candida albicans” (Eur J Med Chem, 2022).
Converted amounts (≈) assume the structure as drawn. The source made the active and inactive calls. The calls are words filed in the database; no cut-off is given here.

Experiments:
[1] = test system: Candida albicans; experiment: In vivo antifungal activity against Candida albicans SC5314 infected in Galleria mellonella larvae assessed as prevention of candidiasis at 16 ug/ml administered 1 hr prior to infection measured after 5 days by Hematoxylin and eosin staining; format: functional, organism-based; settings: dose 16.0 µg/ml, time 5.0 day
[2] = test system: Candida albicans; experiment: Antifungal activity against Candida albicans SC5314 assessed as inhibition of fungal growth at 4 ug/ml incubated for 18 hrs by M27-A3 based microdilution method relative to control; format: functional
[3] = test system: Candida albicans; experiment: Antifungal activity against Candida albicans SC5314 assessed as inhibition of fungal growth at 16 ug/ml incubated for 18 hrs by M27-A3 based microdilution method relative to control; format: functional
[4] = test system: Candida albicans; experiment: Fungicidal activity against Candida albicans SC5314 assessed as inhibition of fungal growth incubated for 48 hrs by M27-A3 based microdilution method; format: functional
[5] = test system: Candida albicans; experiment: Antifungal activity against Candida albicans SC5314 assessed as inhibition of fungal growth at 8 ug/ml incubated for 18 hrs by M27-A3 based microdilution method relative to control; format: functional
[6] = test system: Candida albicans; experiment: Antifungal activity against Candida albicans SC5314 assessed as inhibition of fungal growth at 8 ug/ml incubated for 48 hrs by M27-A3 based microdilution method relative to control; format: functional
[7] = test system: Candida albicans; experiment: Antifungal activity against Candida albicans SC5314 assessed as inhibition of fungal growth at 4 ug/ml incubated for 48 hrs by M27-A3 based microdilution method relative to control; format: functional
[8] = test system: Candida albicans; experiment: Antifungal activity against Candida albicans SC5314 assessed as inhibition of fungal growth at 2 ug/ml incubated for 18 hrs by M27-A3 based microdilution method relative to control; format: functional
[9] = test system: Candida albicans; experiment: Antifungal activity against Candida albicans SC5314 assessed as inhibition of fungal growth at 2 ug/ml incubated for 48 hrs by M27-A3 based microdilution method relative to control; format: functional
[10] = test system: Candida albicans; experiment: Antifungal activity against Candida albicans SC5314 assessed as inhibition of fungal growth at 1 ug/ml incubated for 18 hrs by M27-A3 based microdilution method relative to control; format: functional
[11] = test system: Candida albicans; experiment: Antifungal activity against Candida albicans SC5314 assessed as inhibition of fungal growth at 1 ug/ml incubated for 48 hrs by M27-A3 based microdilution method relative to control; format: functional
[12] = test system: Candida albicans; experiment: Antifungal activity against Candida albicans SC5314 assessed as inhibition of fungal growth at 0.5 ug/ml incubated for 18 hrs by M27-A3 based microdilution method relative to control; format: functional
[13] = test system: Candida albicans; experiment: Antifungal activity against Candida albicans SC5314 assessed as inhibition of fungal growth at 0.5 ug/ml incubated for 48 hrs by M27-A3 based microdilution method relative to control; format: functional
[14] = test system: Candida albicans; experiment: Antifungal activity against Candida albicans SC5314 assessed as inhibition of fungal growth at 0.25 ug/ml incubated for 18 hrs by M27-A3 based microdilution method relative to control; format: functional
[15] = test system: Candida albicans; experiment: Antifungal activity against Candida albicans SC5314 assessed as inhibition of fungal growth at 0.25 ug/ml incubated for 48 hrs by M27-A3 based microdilution method relative to control; format: functional
[16] = test system: Candida albicans; experiment: Antifungal activity against Candida albicans SC5314 assessed as inhibition of fungal growth at 0.125 ug/ml incubated for 18 hrs by M27-A3 based microdilution method relative to control; format: functional
[17] = test system: Candida albicans; experiment: Antifungal activity against Candida albicans SC5314 assessed as inhibition of fungal growth at 0.125 ug/ml incubated for 48 hrs by M27-A3 based microdilution method relative to control; format: functional
[18] = test system: Candida albicans; experiment: Antifungal activity against Candida albicans SC5314 assessed as inhibition of fungal growth at 0.0625 ug/ml incubated for 18 hrs by M27-A3 based microdilution method relative to control; format: functional
[19] = test system: Candida albicans; experiment: Antifungal activity against Candida albicans SC5314 assessed as inhibition of fungal growth at 0.0625 ug/ml incubated for 48 hrs by M27-A3 based microdilution method relative to control; format: functional
[20] = test system: Candida albicans; experiment: Antifungal activity against Candida albicans SC5314 assessed as inhibition of fungal growth at 0.03125 ug/ml incubated for 18 hrs by M27-A3 based microdilution method relative to control; format: functional
[21] = test system: Candida albicans; experiment: Antifungal activity against Candida albicans SC5314 assessed as inhibition of fungal growth at 0.03125 ug/ml incubated for 48 hrs by M27-A3 based microdilution method relative to control; format: functional
[22] = test system: Candida albicans; experiment: Induction of apoptosis in Candida albicans SC5314 non-protoplast cells assessed as necrotic cells at 16 ug/ml incubated for 18 hrs by PI/Annexin V staining based flow cytometry assay; format: functional; settings: dose 16 µg/ml
[23] = test system: Candida albicans; experiment: Induction of apoptosis in Candida albicans SC5314 protoplast cells assessed as necrotic cells at 16 ug/ml incubated for 18 hrs by PI/Annexin V staining based flow cytometry assay; format: functional; settings: dose 16 µg/ml
[24] = test system: Candida albicans; experiment: Induction of cell cycle arrest in Candida albicans SC5314 assessed as accumulation of cells in G0/G1 phase at 16 ug/ml incubated fro 18 hrs by PI staining based flow cytometry method; format: functional, organism-based; settings: dose 16.0 µg/ml
[25] = test system: Candida albicans; experiment: Induction of reactive oxygen species generation in Candida albicans SC5314 assessed as increase in ROS level at 16 ug/ml incubated for 18 hrs by DCFH-DA staining based flow cytometric analysis (reference value: 0.77+/- 0.4%); format: functional; settings: dose 16 µg/ml
[26] = test system: Candida albicans; experiment: Induction of reactive oxygen species generation in Candida albicans cnb1delta/cnb1delta mutant assessed as increase in ROS level at 16 ug/ml incubated for 18 hrs by DCFH-DA staining based flow cytometric analysis (reference value: 4.7+/- 5.9%); format: functional; settings: dose 16 µg/ml
[27] = test system: Candida albicans; experiment: Induction of reactive oxygen species generation in Candida albicans BWP17 assessed as increase in ROS level at 16 ug/ml incubated for 18 hrs by DCFH-DA staining based flow cytometric analysis (reference value: 7.2+/- 0.2%); format: functional; settings: dose 16 µg/ml
[28] = test system: Candida albicans; experiment: Induction of reactive oxygen species generation in Candida albicans CNB1/cnb1delta mutant assessed as increase in ROS level at 16 ug/ml incubated for 18 hrs by DCFH-DA staining based flow cytometric analysis (reference value: 3.8+/- 4.2%); format: functional; settings: dose 16 µg/ml
[29] = test system: Candida albicans; experiment: Antifungal against Candida albicans SC5314 biofilm co-cultured with African green monkey Vero cells assessed as apoptotic-like chromatin aggregation of intact hyphae by measuring green fluorescence emission at 16 ug/ml incubated for 18 hrs by PI/acridine orange double staining based confocal laser scanning microscopic analysis; format: functional, organism-based; settings: dose 16.0 µg/ml
[30] = test system: Candida albicans; experiment: Antifungal against Candida albicans SC5314 biofilm assessed as amorphous layer of cell surface barrier at 16 ug/ml incubated for 18 hrs by Rho123 and Hoechst 33342 double staining based confocal laser scanning microscopic analysis; format: functional, organism-based; settings: dose 16.0 µg/ml
[31] = test system: Vero; experiment: Cytotoxicity against African green monkey Vero cells at > 64 ug/ml measured after 24 hrs by XTT assay; format: toxicity, cell-based; settings: chlorocebus sabaeus, dose > 64 µg/ml
[32] = Cytotoxicity against human TR146 cells at more than 64 ug/ml measured after 24 hrs by XTT assay; format: toxicity, cell-based; settings: tr146, 24 h, dose 64 µg/ml
[33] = Toxicity in Galleria mellonella larvae assessed as melanization of larvae at 16 ug/ml measured every 24 hrs for 4 to 5 days relative to control; settings: at 16 µg/mL, time 4-5 day
[34] = Toxicity in Galleria mellonella larvae assessed as change in morphology at 16 ug/ml measured after 5 days by Hematoxylin and eosin staining; settings: 120 h, dose 16 µg/ml, time 5 day
[35] = test system: Candida albicans; experiment: In vivo antifungal activity against Candida albicans SC5314 infected in Galleria mellonella larvae assessed as survival rate of larvae at 16 ug/ml administered 1 hr post infection measured within 5 days by Hematoxylin and eosin staining; format: functional; settings: SC5314, 120 h, time 5 day
[36] = test system: Candida albicans; experiment: In vivo antifungal activity against Candida albicans SC5314 infected in Galleria mellonella larvae assessed as survival rate of larvae at 16 ug/ml administered 1 hr prior to infection measured within 5 days by Hematoxylin and eosin staining; format: functional; settings: SC5314, 120 h, time 5 day
[37] = test system: Candida albicans; experiment: Antifungal activity against Candida albicans assessed as inhibition of fungal growth measured after 48 hrs by M27-A3 based broth microdilution; format: functional
[38] = test system: Candida albicans; experiment: Antifungal activity against Candida albicans assessed as inhibition of fungal growth measured after 48 hrs in presence of exogenous ergosterol by M27-A3 based broth microdilution; format: functional

With `O=C1CN=C(c2ccccc2Br)c2cc(F)ccc2N1CCCn1nnc(-c2ccc(Cl)cc2)n1` the Activity [1] was “Active”, the inhibition at 4 µg/mL [2] was 99.2% and the inhibition at 16 µg/mL [3] was 99.5%. The “inhibition (INH)” value [4] was 99.24%, the inhibition at 8 µg/mL [5] was 99% and the inhibition at 8 µg/mL [6] was 99%. The inhibition at 4 µg/mL [7] was 99.2%, the inhibition at 2 µg/mL [8] was 99.8% and the inhibition at 2 µg/mL [9] was 100%. The inhibition at 1 µg/mL [10] was 99%, the inhibition at 1 µg/mL [11] was 99.1% and the inhibition at 0.5 µg/mL [12] was 99%. It also gave an inhibition at 0.5 µg/mL [13] of 99%, an inhibition at 0.25 µg/mL [14] of 99.9% and an inhibition at 0.25 µg/mL [15] of 100%. It also gave an inhibition at 0.125 µg/mL [16] of 98.9%, an inhibition at 0.125 µg/mL [17] of 98.9% and an inhibition at 0.0625 µg/mL [18] of 99.3%. For the same compound, the inhibition at 0.0625 µg/mL [19] was 99.3%, the inhibition at 0.03125 µg/mL [20] was 100% and the inhibition at 0.03125 µg/mL [21] was 100%. The Activity [22] was 78.23%, the Activity [23] was 81.23% and the Activity [24] was “Active”. It also gave an Activity [25] of 19.6%, an Activity [26] of 3.35% and an Activity [27] of 6.8%. For the same compound, the Activity [28] was 4.2%, the Activity [29] was “Active” and the Activity [30] was “Active”. For the same compound, the Activity [31] was “Toxic”, the Activity [32] was “Non-Toxic” and the Activity [33] was 17%. For the same compound, the Activity [34] was “Non-Toxic”, the survival at 16 µg/mL [35] was 100% and the survival at 16 µg/mL [36] was 95%. The MIC [37] was 64 µg/mL (≈ 116 µM) and the MIC [38] was 2.56 µg/mL.
